From patent US7045532B2 (Millennium Pharmaceuticals, Inc., priority 1999, dated 2006) come the findings set out here.

The structures appear in SMILES notation. Where two headings read alike, the source gives them in different places. Bounds are passed on as bounds.

One test addresses T1, ACE-2 (Homo sapiens, UniProt Q9BYF1).
T1 construct: a stop codon inserted after the serine immediately preceding the transmembrane domain; made in house; host or cells: CHO K1 cells (transient transfection, purified from conditioned medium)
In words: ACE-2 Competitive Substrate Assay (ACS Assay). The format is biochemical.

The target in the next test is T2, ACE (Sigma, A2580) (Sus scrofa, UniProt F1RRW5).
T2 construct: ACE from porcine kidney; purchased Sigma A2580; host or cells: porcine kidney
T2 sequence (F1RRW5 34-1309): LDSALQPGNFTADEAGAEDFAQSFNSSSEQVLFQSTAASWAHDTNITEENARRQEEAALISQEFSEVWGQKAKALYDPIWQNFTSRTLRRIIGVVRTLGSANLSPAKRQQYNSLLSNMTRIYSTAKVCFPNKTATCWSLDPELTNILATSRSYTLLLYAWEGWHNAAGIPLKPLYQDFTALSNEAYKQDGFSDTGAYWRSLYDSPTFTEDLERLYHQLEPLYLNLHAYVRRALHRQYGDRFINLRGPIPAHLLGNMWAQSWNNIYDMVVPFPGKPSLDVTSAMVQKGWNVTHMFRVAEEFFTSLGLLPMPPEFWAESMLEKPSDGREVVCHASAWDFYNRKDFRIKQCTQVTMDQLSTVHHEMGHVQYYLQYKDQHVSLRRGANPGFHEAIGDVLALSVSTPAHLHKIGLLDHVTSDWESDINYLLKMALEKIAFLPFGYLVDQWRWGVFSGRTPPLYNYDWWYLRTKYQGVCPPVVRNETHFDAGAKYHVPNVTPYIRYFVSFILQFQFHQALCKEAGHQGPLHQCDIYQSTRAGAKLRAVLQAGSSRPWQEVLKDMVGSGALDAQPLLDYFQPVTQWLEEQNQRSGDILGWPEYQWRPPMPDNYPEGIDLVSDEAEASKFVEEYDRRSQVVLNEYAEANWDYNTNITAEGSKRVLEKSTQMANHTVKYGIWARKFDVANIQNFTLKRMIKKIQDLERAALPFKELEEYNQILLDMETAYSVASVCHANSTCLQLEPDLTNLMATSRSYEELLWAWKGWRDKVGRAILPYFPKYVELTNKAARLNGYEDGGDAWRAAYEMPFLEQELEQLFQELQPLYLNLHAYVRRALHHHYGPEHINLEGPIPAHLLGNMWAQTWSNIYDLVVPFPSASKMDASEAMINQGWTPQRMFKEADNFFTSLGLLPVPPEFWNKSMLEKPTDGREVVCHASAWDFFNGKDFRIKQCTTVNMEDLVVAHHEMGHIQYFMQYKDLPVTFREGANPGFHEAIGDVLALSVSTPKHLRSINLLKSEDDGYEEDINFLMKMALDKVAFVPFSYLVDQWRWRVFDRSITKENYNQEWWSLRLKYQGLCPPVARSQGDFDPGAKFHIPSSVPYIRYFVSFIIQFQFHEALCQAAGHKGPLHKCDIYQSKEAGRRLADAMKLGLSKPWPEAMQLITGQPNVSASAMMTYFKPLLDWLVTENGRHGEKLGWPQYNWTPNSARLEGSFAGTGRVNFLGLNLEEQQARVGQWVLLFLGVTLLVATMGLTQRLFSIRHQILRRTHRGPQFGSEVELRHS
In words: ACE enzymatic activity assay. In kind it is biochemical, porcine. The note with it: Ki class, compounds tested in 5% DMSO. How it is done: ACE (Sigma, A2580) enzymatic activity was assayed in microtiter plates using the following protocol. ACE assay buffer was made from 50 mM HEPES (Sigma), 300 mM sodium chloride (Sigma), and 0.01% Brij-35 (Pierce Chemical Co) at pH 7.5.
Reactions were mixed and incubated at 25° C. Enzymatic cleavage of the substrate is marked by a fluorescence change (excitation 330 nm, emission 415 nm).
The activity of the test compounds was investigated using the procedure outlined above. The compounds were tested in 5% DMSO. Enzyme activity was measured at 12 compound concentrations. […]. […]

The next test has as its target T3, Carboxypeptidase A (Bos taurus, UniProt P00730).
T3 sequence (P00730 111-419): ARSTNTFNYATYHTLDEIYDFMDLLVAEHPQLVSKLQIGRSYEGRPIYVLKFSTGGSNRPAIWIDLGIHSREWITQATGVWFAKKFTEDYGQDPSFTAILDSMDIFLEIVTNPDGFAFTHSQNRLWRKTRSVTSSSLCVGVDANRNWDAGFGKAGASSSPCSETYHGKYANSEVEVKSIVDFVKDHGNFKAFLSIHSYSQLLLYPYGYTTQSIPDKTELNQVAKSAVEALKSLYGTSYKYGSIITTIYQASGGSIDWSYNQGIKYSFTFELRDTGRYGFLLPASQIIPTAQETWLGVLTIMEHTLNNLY
In words: Carboxypeptidase A activity assay. The format is biochemical. The note with it: Ki class, compounds tested in 5% DMSO. Here is the method: Carboxypeptidase A activity was measured using a literature assay (Holmquist and Riordan, “Carboxypeptidase A,” Methods of Enzymatic Analysis (1984) p. 44–60). The assay was adapted to a 96 well format by adjusting to a 300 μL assay volume and using ultra-thin bottom plates (Costar/Corning) read at 328 nm. The assay was stopped using EDTA.
The activity of the test compounds was investigated using the procedure outlined above. The compounds were tested in 5% DMSO. Enzyme activity was measured at 12 compound concentrations. The Ki was calculated by using Ki=Kiapp/(1+[S]/Km).
To determine whether a test compound is capable of modulating carboxypeptidase A's ability to cleave a substrate the method described in Holmquist and Riordan, Carboxypeptidase A, p44–60, Peptidase and Their Inhibitors in Method of Enzymatic Analysis (1984), may be used.
The assay may be adapted to a 96 well format by adjusting to a 300 μl assay volume and using ultrathin bottom plates (Costar/Coming) read at 328 nm with a final assay volume of 300 μl. The assay may be stopped using EDTA.

Setting [1] is: Ki class, compounds tested in 5% DMSO, 12 concentrations, read-out: Human ACE-2 Activity.
The mark [2] stands for this setting: Ki class, compounds tested in 5% DMSO, 12 compound concentrations, Ki=Kiapp/(1+[S]/Km), read-out: Human ACE-2 Activity.
Setting [3] is: Table 3, very good ACE-2 inhibiting compounds, species not given, read-out: ACE-2 Activity, Ki.

T1 sequence (Q9BYF1 18-740 limits assumed): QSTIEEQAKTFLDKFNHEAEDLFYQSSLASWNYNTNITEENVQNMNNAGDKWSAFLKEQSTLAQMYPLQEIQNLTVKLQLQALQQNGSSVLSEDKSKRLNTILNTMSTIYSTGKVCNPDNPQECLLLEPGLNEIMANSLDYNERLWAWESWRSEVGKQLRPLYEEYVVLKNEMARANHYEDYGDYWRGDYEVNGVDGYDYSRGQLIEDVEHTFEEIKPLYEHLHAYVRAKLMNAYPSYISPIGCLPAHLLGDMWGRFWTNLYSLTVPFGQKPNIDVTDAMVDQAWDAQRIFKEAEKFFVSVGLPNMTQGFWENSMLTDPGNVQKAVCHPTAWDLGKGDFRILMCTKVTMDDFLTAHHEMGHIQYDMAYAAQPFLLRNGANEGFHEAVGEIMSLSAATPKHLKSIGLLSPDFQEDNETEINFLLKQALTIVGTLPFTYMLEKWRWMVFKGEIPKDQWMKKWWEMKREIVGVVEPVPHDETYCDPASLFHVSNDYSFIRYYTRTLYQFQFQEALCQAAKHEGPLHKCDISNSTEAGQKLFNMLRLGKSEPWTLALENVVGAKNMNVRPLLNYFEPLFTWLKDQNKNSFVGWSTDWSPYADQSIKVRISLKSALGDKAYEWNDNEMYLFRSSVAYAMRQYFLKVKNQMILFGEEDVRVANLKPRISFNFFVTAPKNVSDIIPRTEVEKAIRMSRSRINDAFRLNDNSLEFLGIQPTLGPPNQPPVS

Regarding `CCC(N[C@@H](Cc1c[nH]cn1)C(=O)O)C(=O)O` (stereo partly shown), the Ki was more than 0.5 µM on ACE-2 (setting [1]); more than 50 µM on ACE (Sigma, A2580) (12 concentrations); more than 50 µM at Carboxypeptidase A (12 concentrations).

Take `CC(=O)N(C(CCc1ccccc1)C(=O)O)[C@@H](CC(C)C)C(=O)O` (single isomer, unassigned) [AT, 2-[Acetyl-(1-carboxy-3-phenyl-propyl)-amino]-4-methyl-pentanoic acid]: the Ki is more than 0.5 µM at ACE-2 (setting [1]); more than 50 µM at ACE (Sigma, A2580) (12 concentrations); more than 50 µM on Carboxypeptidase A (12 concentrations).

As for `CCCCC(CC(=O)O)N[C@@H](Cc1c[nH]cn1)C(=O)O` (single isomer, unassigned) [ES, 3-[1-Carboxy-2-(1H-imidazol-4-yl)-ethylamino]heptanoic acid], the Ki at ACE-2 (setting [1]) is more than 0.5 µM; on ACE (Sigma, A2580) (12 concentrations), more than 50 µM; at Carboxypeptidase A (12 concentrations) it was more than 50 µM.

For the compound `CC(C)CC(N[C@@H](Cc1cncn1COCc1ccccc1)C(N)=O)C(=O)O` (single isomer, unassigned) [FB, 2-[2-(3-Benzyloxymethyl-3H-imidazol-4-yl)-1-carbamoyl-ethylamino]-4-methyl-pentanoic acid], the Ki at ACE-2 (setting [1]) was more than 0.5 µM; on ACE (Sigma, A2580) (12 concentrations), more than 50 µM; on Carboxypeptidase A (12 concentrations) it was more than 50 µM.

As for `CC(C)CC(N[C@@H](CNc1ccccc1)C(=O)O)C(=O)O` (single isomer, unassigned) [FI, 2-(1-Carboxy-2-phenylamino-ethylamino)-4-methyl-pentanoic acid], the Ki on ACE-2 (setting [1]) is more than 0.5 µM; on ACE (Sigma, A2580) (12 concentrations) it was more than 50 µM; on Carboxypeptidase A (12 concentrations) it was more than 50 µM.

Take `CC(C)CC(N[C@@H](Cc1cncn1COCc1ccccc1)C(=O)NCCc1ccccc1)C(=O)O` (single isomer, unassigned) [FM, 2-[2-(3-Benzyloxymethyl-3H-imidazol-4-yl)-1-phenethylcarbamoyl-ethylamino]-4-methyl-pentanoic acid]: the Ki on ACE-2 (setting [1]) is more than 0.5 µM; on ACE (Sigma, A2580) (12 concentrations), more than 50 µM; at Carboxypeptidase A (12 concentrations) it was more than 50 µM.

Consider `CC(C)CC(N[C@@H](Cc1cncn1Cc1ccc(C(=O)O)cc1)C(=O)O)C(=O)O` (single isomer, unassigned) [GO, 4-[5-[2-Carboxy-2-(1-carboxy-3-methyl-butylamino)-ethyl]-imidazol-1-ylmethyl]-benzoic acid], for which the Ki was more than 0.5 µM on ACE-2 (setting [1]); more than 50 µM at ACE (Sigma, A2580) (12 concentrations); more than 50 µM at Carboxypeptidase A (12 concentrations).

For `CC(C)CC(N[C@@H](Cc1cncn1Cc1ccc(C#N)cc1)C(=O)O)C(=O)O` (single isomer, unassigned) [HA, 2-[1-Carboxy-2-[3-(4-cyano-benzyl)-3H-imidazol-4-yl]-ethylamino)4-methyl-pentanoic acid], the Ki at ACE-2 (setting [2]) is less than 0.1 µM; on ACE-2 (setting [3]), 0.05 to 0.1 µM; at ACE (Sigma, A2580) (12 compound concentrations), 10 to 50 µM; on Carboxypeptidase A (12 compound concentrations) it was 10 to 50 µM.

As to `CC(C)CC(N[C@@H](Cc1cncn1Cc1ccc(C(C)(C)C)cc1)C(=O)O)C(=O)O` (single isomer, unassigned) [HY, 2-[2-[3-(4-tert-Butyl-benzyl)-3H-imidazol-4-yl]-1-carboxy-ethylamino)-4-methyl-pentanoic acid], the Ki was less than 0.1 µM on ACE-2 (setting [2]); 0.05 to 0.1 µM on ACE-2 (setting [3]); less than 10 µM on ACE (Sigma, A2580) (12 compound concentrations); less than 10 µM on Carboxypeptidase A (12 compound concentrations).

With `O=C(O)C(CCc1ccccc1)N1CCC[C@H]1C(=O)O` (stereo in doubt) [AC, 1-(1-Carboxy-3-phenyl-propyl)-pyrrolidine-2-carboxylic acid], the Ki was more than 0.5 µM on ACE-2 (setting [1]); more than 50 µM on ACE (Sigma, A2580) (12 concentrations); more than 50 µM on Carboxypeptidase A (12 concentrations).

As for `CC(C)CC(N[C@@H](Cc1c[nH]cn1)C(=O)O)C(=O)O` (stereo in doubt) [AE, 2-[1-Carboxy-2-(1H-imidazol-4-yl)-ethylamino]4-methyl-pentanoic acid], the Ki was more than 0.5 µM on ACE-2 (setting [1]); more than 50 µM at ACE (Sigma, A2580) (12 concentrations); more than 50 µM at Carboxypeptidase A (12 concentrations).

Regarding `CCCC(N[C@@H](Cc1c[nH]cn1)C(=O)O)C(=O)O` (stereo in doubt) [AF, 2-[1-Carboxy-2-(1H-imidazol-4-yl)-ethylamino]pentanoic acid], the Ki is more than 0.5 µM at ACE-2 (setting [1]); more than 50 µM at ACE (Sigma, A2580) (12 concentrations); more than 50 µM at Carboxypeptidase A (12 concentrations).

Turning to `CCCC(N[C@@H](CCSC)C(=O)O)C(=O)O` (stereo in doubt) [AO, 2-(1-Carboxy-3-methylsulfanyl-propylamino)-pentanoic acid], the Ki at ACE-2 (setting [1]) is more than 0.5 µM; on ACE (Sigma, A2580) (12 concentrations), more than 50 µM; at Carboxypeptidase A (12 concentrations), more than 50 µM.

Take `CCCC(N[C@@H](CC(C)C)C(=O)O)C(=O)O` (stereo in doubt) [AQ, 2-(1-Carboxy-butylamino)-4-methyl-pentanoic acid]: the Ki was more than 0.5 µM on ACE-2 (setting [1]); more than 50 µM on ACE (Sigma, A2580) (12 concentrations); more than 50 µM on Carboxypeptidase A (12 concentrations).

Take `CC(C)C[C@H](NC(C(=O)O)c1ccc(C(F)(F)F)cc1)C(=O)O` (stereo in doubt) [AR, 2-{[Carboxy-(4-trifluoromethyl-phenyl)-methyl]-amino}-4-methyl-pentanoic acid]: the Ki at ACE-2 (setting [1]) was more than 0.5 µM; on ACE (Sigma, A2580) (12 concentrations) it was more than 50 µM; at Carboxypeptidase A (12 concentrations), more than 50 µM.

As for `O=C(O)C(CCc1ccccc1)N[C@@H](Cc1c[nH]cn1)C(=O)O` (stereo partly shown) [ER, 2-[1-Carboxy-2-(1H-imidazol-4-yl)-ethylamino]4-phenyl-butync acid], the Ki is more than 50 µM on ACE (Sigma, A2580) (12 concentrations) and more than 50 µM on Carboxypeptidase A (12 concentrations).

Regarding `CC(C)CC(N[C@@H](Cc1cn(Cc2ccc(Cl)cc2)cn1)C(=O)O)C(=O)O` (stereo partly shown) [EU, 2-[1-Carboxy-2-[1-(4-chloro-benzyl)-1H-imidazol-4-yl]-ethylamino)4-methyl-pentanoic acid], the Ki was more than 50 µM at ACE (Sigma, A2580) (12 concentrations) and 10 to 50 µM at Carboxypeptidase A (12 concentrations).

For `CC(C)CC(NC(Cc1cncn1Cc1cccc([N+](=O)[O-])c1)C(=O)O)C(=O)O` (stereo not shown) [GA], the Ki at ACE (Sigma, A2580) (12 concentrations) was more than 50 µM; at Carboxypeptidase A (12 concentrations), 10 to 50 µM.

As to `O=C(O)C(Cc1ccccc1)NC(Cc1cncn1Cc1ccccc1)C(=O)O` (stereo not shown) [GE, 3-(3-Benzyl-3H-imidazol-4-yl)-2-(1-carboxy-2-phenyl-ethylamino)-propronic acid], the Ki at ACE (Sigma, A2580) (12 concentrations) is more than 50 µM; on Carboxypeptidase A (12 concentrations), more than 50 µM.
